Results taken from ChEMBL document CHEMBL1201862, “PubChem BioAssay data set” (2004).
Active and inactive are the calls of the source.

Legend:
[1] = off-target signal loss in HeLa-CEM21 co-culture – HeLa F-luc CTL cells, cherry-picked, counter-screen for HIV-1 Env fusion inhibitor project, dose response (AID 652040); type: functional, cell-based;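 note: potency for signal decrease marking cytotoxic or nonspecific inhibition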
[2] = Luminescence Cell-Based Dose Response HTS to Identify Inhibitors of 5'UTR Stem-Loop Driven Prion Protein mRNA Translation in H4 Neuroglioblastoma Cells. [Related pubchem assays: 1827 (Project Summary), 1813 (Primary HTS)]; type: functional
[3] = HIV-1 Vif–A3G interaction blockers – biochemical, TR-FRET, GST-Vif 1-94, biotin-A3G peptide, dose response retest, primary screen (AID 1117319); type: functional;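 note: TR-FRET signal of purified GST-Vif binding a biotinylated A3G peptide; inhibitors lower the FRET signal by blocking Vif and A3G binding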
[4] = alpha-synuclein stem-loop luciferase translation blockers – H4 neuroglioma cells, luminescence, confirmation (AID 1988); type: functional, cell-based
[5] = HIV-1 AD8 envelope cell-cell fusion blockers – cherry-pick, dose response (AID 652062); type: functional, cell-based;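 note: luciferase signal from cell-cell fusion driven by HIV-1 clade B AD8 Env; potency is for inhibitors of fusion seen as a drop in luminescence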
[6] = luciferase reporter signal suppression in cells – H4 neuroglioma cells, luminescence, dose response (AID 1990); type: functional, cell-based
[7] = blockers of HIV-1 envelope-mediated cell-cell fusion – cherry-pick, dose response (AID 652057); type: functional, cell-based
Caspase-9 = Caspase-9 (Homo sapiens, UniProt P55211); assay: inhibitors of purified CASP9 protease – biochemical, fluorescence, plate reader, cherry-picked samples, selectivity assay for caspase-6 inhibitor project, dose response (AID 743293)
Sequence of Caspase-9 (P55211 1-315 limits assumed): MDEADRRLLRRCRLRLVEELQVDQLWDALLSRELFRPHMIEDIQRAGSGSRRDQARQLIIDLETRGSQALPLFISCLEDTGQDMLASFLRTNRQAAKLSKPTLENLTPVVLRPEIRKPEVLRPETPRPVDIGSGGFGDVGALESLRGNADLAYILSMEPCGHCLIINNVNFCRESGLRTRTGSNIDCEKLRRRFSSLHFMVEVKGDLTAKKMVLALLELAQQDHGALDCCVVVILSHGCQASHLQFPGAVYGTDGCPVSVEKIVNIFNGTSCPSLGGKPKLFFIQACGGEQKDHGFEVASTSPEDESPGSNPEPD
Sequence of Caspase-9 (P55211 331-416 limits assumed): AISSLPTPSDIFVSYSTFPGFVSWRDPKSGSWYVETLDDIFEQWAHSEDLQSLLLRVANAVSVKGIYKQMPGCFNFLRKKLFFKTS

[8] = molecular target: T1, Polyadenylate-binding protein 1 (Homo sapiens, UniProt P11940); assay: MLLE binding blockers, Cy5 peptide tracer – biochemical, fluorescence polarization, Cy5-PAM2 peptide, secondary, miRNA deadenylation inhibitor project, dose response (AID 602260); type: functional; conditions: read-out: IC50_Mean
T1 sequence (P11940 whole entry): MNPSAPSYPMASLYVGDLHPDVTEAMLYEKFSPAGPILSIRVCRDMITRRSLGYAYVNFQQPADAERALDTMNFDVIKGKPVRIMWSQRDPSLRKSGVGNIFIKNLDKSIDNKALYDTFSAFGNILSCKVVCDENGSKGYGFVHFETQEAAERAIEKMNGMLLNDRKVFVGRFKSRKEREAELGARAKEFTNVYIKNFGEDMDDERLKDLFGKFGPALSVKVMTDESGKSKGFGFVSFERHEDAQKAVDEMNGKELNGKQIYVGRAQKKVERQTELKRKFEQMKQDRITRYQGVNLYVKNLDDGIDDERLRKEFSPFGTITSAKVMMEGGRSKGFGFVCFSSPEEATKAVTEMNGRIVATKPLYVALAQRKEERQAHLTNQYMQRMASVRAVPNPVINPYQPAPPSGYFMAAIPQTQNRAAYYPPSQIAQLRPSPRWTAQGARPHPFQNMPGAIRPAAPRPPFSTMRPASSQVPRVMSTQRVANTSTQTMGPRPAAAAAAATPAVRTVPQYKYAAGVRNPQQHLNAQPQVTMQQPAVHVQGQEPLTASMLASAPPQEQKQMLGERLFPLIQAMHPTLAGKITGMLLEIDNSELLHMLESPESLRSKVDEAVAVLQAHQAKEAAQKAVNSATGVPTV

[9] = molecular target: T2, Rac GTPase-activating protein 1 (Homo sapiens, UniProt Q9H0H5); assay: blockers of MgcRacGAP-driven Rac1 GTP hydrolysis – biochemical, ADP Hunter fluorescence, primary and confirmatory, confirmation (AID 624330); type: functional
T2 sequence (Q9H0H5 whole entry): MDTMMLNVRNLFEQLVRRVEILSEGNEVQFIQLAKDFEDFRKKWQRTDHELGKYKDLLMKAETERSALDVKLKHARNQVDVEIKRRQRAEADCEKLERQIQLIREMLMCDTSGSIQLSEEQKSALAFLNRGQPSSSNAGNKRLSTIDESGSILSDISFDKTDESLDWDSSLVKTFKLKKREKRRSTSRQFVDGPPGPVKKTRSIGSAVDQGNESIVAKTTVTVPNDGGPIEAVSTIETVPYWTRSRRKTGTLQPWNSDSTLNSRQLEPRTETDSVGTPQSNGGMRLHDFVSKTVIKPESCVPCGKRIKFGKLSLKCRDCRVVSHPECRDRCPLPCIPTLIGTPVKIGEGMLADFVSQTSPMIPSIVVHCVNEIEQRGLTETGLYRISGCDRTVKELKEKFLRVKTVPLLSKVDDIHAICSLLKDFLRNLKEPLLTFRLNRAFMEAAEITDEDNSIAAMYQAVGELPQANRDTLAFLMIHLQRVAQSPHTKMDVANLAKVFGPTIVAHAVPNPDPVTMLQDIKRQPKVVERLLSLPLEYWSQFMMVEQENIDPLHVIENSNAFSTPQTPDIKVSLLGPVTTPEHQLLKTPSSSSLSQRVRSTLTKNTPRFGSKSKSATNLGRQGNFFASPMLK

[10] = molecular target: T1, Polyadenylate-binding protein 1; assay: MLLE domain peptide-binding blockers, IC50 – biochemical, fluorescence polarization, FITC-PAM2 peptide, dose response (AID 602259); type: functional; conditions: read-out: IC50_Mean
Caspase-6 = molecular target: T3, Caspase-6 (Homo sapiens, UniProt P55212); assay: inhibition of CASP6 peptide cleavage – biochemical, VEID-R110 fluorescence, cherry-pick, dose response (AID 720632)
T3 sequence (P55212 whole entry): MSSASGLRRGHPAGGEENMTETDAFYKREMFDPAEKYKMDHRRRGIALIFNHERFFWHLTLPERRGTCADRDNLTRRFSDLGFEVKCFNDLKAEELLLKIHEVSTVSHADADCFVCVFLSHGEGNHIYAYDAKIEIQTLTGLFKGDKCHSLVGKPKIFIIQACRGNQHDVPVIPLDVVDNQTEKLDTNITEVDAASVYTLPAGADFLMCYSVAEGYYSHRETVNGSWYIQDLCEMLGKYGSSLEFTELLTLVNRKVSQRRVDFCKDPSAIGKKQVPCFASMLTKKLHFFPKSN

Caspase-7 = Caspase-7 (Homo sapiens, UniProt P55210); assay: caspase-7 enzyme inhibition, selectivity check – biochemical, DEVD-R110 fluorescence, cherry-pick, selectivity assay for caspase-6 inhibitor project, dose response (AID 743295); type: functional
Sequence of Caspase-7 (P55210 24-198 limits assumed): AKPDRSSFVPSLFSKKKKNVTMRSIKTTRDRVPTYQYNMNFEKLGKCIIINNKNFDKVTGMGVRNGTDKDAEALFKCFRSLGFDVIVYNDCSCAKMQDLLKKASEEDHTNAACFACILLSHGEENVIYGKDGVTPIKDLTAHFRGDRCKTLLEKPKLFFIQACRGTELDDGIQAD
Sequence of Caspase-7 (P55210 207-303 limits assumed): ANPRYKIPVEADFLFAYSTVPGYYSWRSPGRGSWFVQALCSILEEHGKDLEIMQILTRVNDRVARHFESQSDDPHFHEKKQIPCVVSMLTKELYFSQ

[11] = general cell-killing toxicity readout – plate reader, dry powder samples, cytotoxicity control for PAX8 inhibitor project, dose response (AID 743021); type: functional, cell-based
[12] = COV362 cell viability loss – plate reader, dry powder, SA12, cytotoxicity control for PAX8 inhibitor project, dose response (AID 743144); type: functional, cell-based
[13] = IGROV1 cell killing – plate reader, dry powder samples, PAX8 inhibitor project, dose response (AID 743043); type: functional, cell-based; conditions: IGROV-1
[14] = OVCAR4 cell viability loss – plate reader, dry powder, SA11, cytotoxicity control for PAX8 inhibitor project, dose response (AID 743150); type: functional, cell-based; conditions: OVCAR-4
[15] = toxicity toward immortalized ovarian surface epithelium – cell-based, plate reader, dry powder samples, cytotoxicity control for PAX8 inhibitor project, dose response (AID 743045); type: functional
Paired box protein Pax-8 = Paired box protein Pax-8 (Homo sapiens, UniProt Q06710); assay: PAX8 transcriptional activity inhibition in RMG-I – RMG-I cells, luciferase, cherry-pick, dose response (AID 687027); type: functional, cell-based;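 note: luciferase reporter driven by Pax8 target thyroperoxidase promoter measured by SteadyGlo luminescence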
Sequence of Paired box protein Pax-8 (Q06710 whole entry): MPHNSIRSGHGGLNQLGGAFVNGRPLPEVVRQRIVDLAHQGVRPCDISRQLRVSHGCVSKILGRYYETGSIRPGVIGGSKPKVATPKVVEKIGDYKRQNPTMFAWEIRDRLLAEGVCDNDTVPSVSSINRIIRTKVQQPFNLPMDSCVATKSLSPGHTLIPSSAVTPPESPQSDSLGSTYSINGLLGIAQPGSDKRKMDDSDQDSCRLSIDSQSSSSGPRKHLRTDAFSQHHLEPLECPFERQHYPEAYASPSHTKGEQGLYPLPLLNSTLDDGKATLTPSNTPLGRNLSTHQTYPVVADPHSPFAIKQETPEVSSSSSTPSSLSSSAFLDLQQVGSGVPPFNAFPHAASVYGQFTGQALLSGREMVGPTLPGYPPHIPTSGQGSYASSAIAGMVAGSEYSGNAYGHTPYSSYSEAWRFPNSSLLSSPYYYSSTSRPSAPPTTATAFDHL

[16] = inhibitors acting on PAX2 in cells – cell-based, plate reader, dry powder samples, selectivity assay for PAX8 inhibitor project, dose response (AID 743048); type: functional;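 note: HEK293 cells carrying a WT1 promoter luciferase reporter driven by expressed Pax2; potency is for inhibition of Pax2 driven reporter signal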
[17] = COV434 cell viability loss – plate reader, dry powder, SA7, cytotoxicity control for PAX8 inhibitor project, dose response (AID 743145); type: functional, cell-based
[18] = PAX5 cellular inhibition readout – cell-based, plate reader, dry powder samples, selectivity assay for PAX8 inhibitor project, dose response (AID 743047); type: functional;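 note: HEK293 cells carrying a Pax5 driven CD19 promoter luciferase reporter; potency of inhibitors that lower reporter luminescence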
[19] = PAX8-dependent cell viability loss – plate reader, dry powder, dose response (AID 743049); type: functional, cell-based
[20] = OV-90 cell viability loss – plate reader, dry powder, SA8, PAX8 inhibitor project, dose response (AID 743149); type: functional, cell-based
[21] = viability loss in Vero cells – cytotoxicity control for Vif-APOBEC3G degradation inhibitor project, dose response (AID 1117358); type: functional; conditions: Vero
ELAV-like protein 1 = ELAV-like protein 1 (Homo sapiens, UniProt Q15717); assay: Identify HuR specific inhibitors.; type: functional
Sequence of ELAV-like protein 1 (Q15717 whole entry): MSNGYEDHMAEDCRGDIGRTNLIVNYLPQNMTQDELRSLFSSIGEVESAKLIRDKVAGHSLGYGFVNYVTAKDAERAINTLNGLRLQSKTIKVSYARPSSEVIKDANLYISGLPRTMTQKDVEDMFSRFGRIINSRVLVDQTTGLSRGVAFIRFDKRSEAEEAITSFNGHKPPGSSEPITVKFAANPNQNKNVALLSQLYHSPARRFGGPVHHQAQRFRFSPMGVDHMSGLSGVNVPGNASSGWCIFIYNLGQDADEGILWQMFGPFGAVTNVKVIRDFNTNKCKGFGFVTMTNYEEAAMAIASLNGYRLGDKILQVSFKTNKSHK

[22] = Plasmodium falciparum Dd2 Sybr green parasite growth Measured in Cell-Based and Microorganism Combination System Using Plate Reader - 2153-01_Inhibitor_Dose_DryPowder_Activity_Set10.; type: functional
[23] = growth inhibition of PfATP4-mutant resistant parasites – NITD609-resistant line, SYBR Green, dry powder, dose response (AID 1159571); type: functional, cell-based;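 note: parasites synchronized at ring stage by sorbitol before testing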
[24] = Dd2 malaria parasite growth inhibition potency – SYBR Green, dry powder samples, dose response (AID 1159566); type: functional, cell-based;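 note: potency for growth inhibition with lower SYBR green DNA signal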
[25] = P. falciparum Dd2 growth inhibitors, dose response, SYBR Green, cherry-picked samples (AID 1159567); type: functional, cell-based
[26] = toxicity to human HepG2 hepatoma cells – cell-based, plate reader, dry powder samples, cytotoxicity control, dose response (AID 1159569); type: functional;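 note: inhibitor potency with signal falling toward the positive control level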
[27] = growth inhibition of yeast DHODH-expressing 3D7 parasites – SYBR Green, dry powder samples, dose response (AID 1159570); type: functional, cell-based;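 note: parasite growth measured after 72 hours of compound exposure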
[28] = SNU-C1 cell viability reduction, dose response, CellTiter-Glo luminescence (AID 1117323); type: functional, cell-based
[29] = HCT116 cell viability decrease, GSK3B pretreatment – CellTiter-Glo, IC50, dose response (AID 1117339); type: functional; conditions: HCT-116
[30] = cytotoxicity toward HCT116 cells – cell-based, CellTiter-Glo luminescence, IC50, dose response (AID 1117332); type: functional; conditions: HCT-116
[31] = cytotoxicity toward Colo320 cells – cell-based, CellTiter-Glo luminescence, IC50, dose response (AID 1117334); type: functional; conditions: COLO 320
[32] = cytotoxicity toward HT-29 cells – cell-based, CellTiter-Glo luminescence, IC50, dose response (AID 1117330); type: functional
[33] = RKO cell viability reduction, dose response, CellTiter-Glo luminescence (AID 1117322); type: functional
[34] = CellTiter-Glo luminescence survival assay, SW480 colon tumor line, concentration-response curve, half-maximal inhibitory concentration (AID 1117338); type: functional
[35] = Reduced DLD-1 viability, concentration-response, CellTiter-Glo luminescence (AID 1117352); type: functional
Transthyretin = Transthyretin (Homo sapiens, UniProt P02766); assay: Luminescence-based cell-based high throughput dose response assay to identify activators of Transthyretin (TTR) transcription.; type: functional
[36] = Dd2 parasite growth inhibition in erythrocytes – SYBR Green, dry powder samples, set 9, dose response (AID 1159568); type: functional, cell-based
[37] = molecular target: Heat shock protein HSP 90-alpha (Homo sapiens, UniProt P07900); assay: Luminescence-based dose response biochemical high throughput screening assay for inhibitors of the Heat Shock Protein 90 (HSP90). [Related pubchem assays: 1831 (Summary AID.), 1846 (Confirmation screen.), 1789 (Primary screen.)]
[38] = Luminescence Cell-Based Dose Response HTS to Identify Activators of Luciferase Translation or Activity in H4 […] Cells. [Related pubchem assays: 1829 (Project Summary), 1814 (Primary HTS)]; type: functional
H4 = assay: Luminescence Cell-Based Dose Response HTS to Identify Activators of 5'UTR Stem-Loop Driven Prion Protein mRNA Translation in H4 Neuroglioblastoma Cells. [Related pubchem assays: 1829 (Project Summary), 1814 (Primary HTS)]; type: functional; conditions: Homo sapiens
Genome polyprotein = Genome polyprotein (dengue virus type 2, UniProt P29990); assay: flavivirus cap methylation enzyme inhibition – biochemical, confirmation dose response, primary screen (AID 588689); type: functional
Sequence of Genome polyprotein (P29990 2492-3391 limits assumed): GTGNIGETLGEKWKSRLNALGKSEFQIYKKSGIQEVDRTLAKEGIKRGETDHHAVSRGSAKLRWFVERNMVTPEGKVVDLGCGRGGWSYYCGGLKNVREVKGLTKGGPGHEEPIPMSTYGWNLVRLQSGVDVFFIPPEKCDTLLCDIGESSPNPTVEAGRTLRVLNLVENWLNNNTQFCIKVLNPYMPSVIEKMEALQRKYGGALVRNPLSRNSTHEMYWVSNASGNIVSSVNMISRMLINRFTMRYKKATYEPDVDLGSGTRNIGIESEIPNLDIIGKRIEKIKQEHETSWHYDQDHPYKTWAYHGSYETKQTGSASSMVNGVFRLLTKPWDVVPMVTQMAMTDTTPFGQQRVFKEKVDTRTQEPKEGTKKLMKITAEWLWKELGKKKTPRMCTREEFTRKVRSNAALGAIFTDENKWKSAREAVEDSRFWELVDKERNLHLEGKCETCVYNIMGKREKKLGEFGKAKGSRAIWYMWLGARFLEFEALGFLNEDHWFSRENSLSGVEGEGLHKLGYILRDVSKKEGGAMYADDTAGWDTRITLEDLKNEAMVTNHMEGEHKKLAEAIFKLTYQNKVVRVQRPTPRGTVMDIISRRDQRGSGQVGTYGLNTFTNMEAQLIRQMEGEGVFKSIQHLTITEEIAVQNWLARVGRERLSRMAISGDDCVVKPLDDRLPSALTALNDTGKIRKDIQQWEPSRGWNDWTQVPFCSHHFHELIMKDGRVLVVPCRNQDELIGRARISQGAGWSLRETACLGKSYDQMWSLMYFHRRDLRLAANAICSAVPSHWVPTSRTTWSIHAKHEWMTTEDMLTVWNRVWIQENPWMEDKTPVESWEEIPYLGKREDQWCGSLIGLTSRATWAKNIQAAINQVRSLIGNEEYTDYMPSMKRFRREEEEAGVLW

[39] = molecular target: RNA-editing ligase 1, mitochondrial (Trypanosoma brucei brucei, UniProt P86926); assay: inhibition of trypanosome RNA editing ligase – biochemical, fluorescence, Trypanosoma brucei, dose response (AID 1117295); type: functional
Sequence of RNA-editing ligase 1, mitochondrial (P86926 whole entry): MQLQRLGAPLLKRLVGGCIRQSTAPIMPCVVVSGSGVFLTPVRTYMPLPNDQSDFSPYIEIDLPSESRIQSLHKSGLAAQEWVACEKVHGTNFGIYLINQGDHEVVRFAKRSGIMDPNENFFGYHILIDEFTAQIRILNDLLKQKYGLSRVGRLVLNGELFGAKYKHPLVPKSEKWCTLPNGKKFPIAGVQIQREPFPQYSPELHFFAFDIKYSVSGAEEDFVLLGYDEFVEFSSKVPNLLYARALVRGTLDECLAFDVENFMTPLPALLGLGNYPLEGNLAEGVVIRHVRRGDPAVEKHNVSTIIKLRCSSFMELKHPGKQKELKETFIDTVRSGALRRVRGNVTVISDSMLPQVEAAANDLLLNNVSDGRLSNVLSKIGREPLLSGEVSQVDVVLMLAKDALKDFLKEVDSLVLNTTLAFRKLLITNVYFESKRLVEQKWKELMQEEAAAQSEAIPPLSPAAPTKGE

Cn1c(-c2ccc(Cl)cc2)ccc(C#N)c1=O
AC50 [1]: 2.62 µM (active) | EC50 [2]: > 120 µM (not active) | IC50 [3]: > 100 µM (active) | EC50 [4]: > 120 µM (not active) | AC50 [5]: 68.9 µM (active) | EC50 [6]: 8.33 µM (active) | AC50 [7]: 2.46 µM (active)

COc1cc(NC(C)CCCNC(C)C)c2ncccc2c1OC (configuration not stated)
AC50 (Caspase-9): > 70 µM (inactive) | IC50 [8]: > 66 µM (inactive) | IC50 [9]: 31.7 µM (active) | IC50 [10]: 49.3 µM (inactive) | AC50 (Caspase-6): 1.52 µM (active) | AC50 (Caspase-7): 23.2 µM (active)

O=C(Nc1cccc(F)c1)N1CCCCN2[C@H](CO)[C@@H](c3ccc(C#Cc4ccccc4)cc3)[C@H]2C1
AC50 [11]: 24.4 µM (active) | AC50 [12]: 17 µM (active) | AC50 [13]: 16 µM (active) | AC50 [14]: 31.1 µM (active) | AC50 [15]: 21.2 µM (active) | AC50 (Paired box protein Pax-8): 15.4 µM (active) | AC50 [16]: 20.8 µM (active) | AC50 [17]: 11.6 µM (active) | AC50 [18]: 21 µM (active) | AC50 [19]: 15.5 µM (active) | AC50 [20]: 12.6 µM (active)

CSc1cccc(-n2cc(-c3ccc4c(c3)OCO4)nc2O)c1
CC50 [21]: > 40 µM (active)

CSC1=NC(=O)/C(=N\Nc2ccc([As](=O)(O)O)cc2)C(N)=N1
IC50 (ELAV-like protein 1): 2.7 µM (inactive)

COc1ccc(-c2ccccc2[C@H]2[C@@H](C#N)N(C(=O)C3CCCC3)[C@H]2CO)cc1
AC50 [22]: 1.11 µM (active) | AC50 [23]: 1.78 µM (active) | AC50 [24]: 0.346 µM (active) | AC50 [25]: 0.479 µM (active) | AC50 [26]: 63.3 µM (active) | AC50 [27]: 0.368 µM (active)

CO[C@H]1O[C@@H]2O[C@@]3(C)CC[C@H]4[C@H](C)CC[C@@H]([C@@H]1C)[C@@]24OO3
IC50 [28]: > 20 µM (inactive) | IC50 [29]: > 20 µM (inactive) | IC50 [30]: > 20 µM (inactive) | IC50 [31]: > 20 µM (inactive) | IC50 [32]: > 20 µM (inactive) | IC50 [33]: > 20 µM (inactive) | IC50 [34]: > 20 µM (inactive) | IC50 [35]: > 20 µM (inactive)

Cn1nccc1C(=O)N1CCc2ccccc21
EC50 (Transthyretin): > 167 µM (inactive)

C/C=C/c1ccc([C@H]2[C@@H](CO)N(CC3CCCCC3)[C@@H]2CNC(C)C)cc1
AC50 [23]: 0.294 µM (active) | AC50 [24]: 0.231 µM (active) | AC50 [25]: 0.494 µM (active) | AC50 [26]: 49.3 µM (active) | AC50 [27]: 0.396 µM (active) | AC50 [36]: 0.316 µM (active)

CCc1ccc(OCc2ccc(C(=O)OC)o2)cc1
IC50 [37]: 0.551 µM (active) | EC50 [38]: 16.4 µM (active) | EC50 (H4): 2.81 µM (active)

O=C(CCN1C(=O)S/C(=C/c2ccccc2)C1=O)Nc1ccc(O)c(C(=O)O)c1
IC50 (Genome polyprotein): 91.6 µM (active) | IC50 [39]: > 96.6 µM (inactive)
